Assay results: US10485845B2, “Neuronal pain pathway” (THE TRUSTEES OF COLUMBIA UNIVERSITY IN THE CITY OF NEW YORK, priority 2005, dated 2019)
pIC50: −log10 of the molar value. “Also recorded” adds a separate entry of the source.

Assays:
PKG [1] = details: see Setyawan et al., 1999; read-out: inhibitory of PKG at concentration of; cited from earlier work
Aplysia SNs [2] = assay: Induction of LTH in axotomized SNs in vitro (electrophysiology); assay type: cell-based, Aplysia californica; details: inhibitor added to 2-d-cultured SN
Aplysia SNs [3] = assay: as above; assay type: cell-based, Aplysia californica; details: for decrease in spike threshold / increase in repetitive firing: 10 μM, SNs grown in presence of inhibitor, third day in vitro
Protocol: FIG. 6A-D. Inhibiting NOS, sGC, or apPKG prevents the induction of LTH in SNs in vitro. SNs were removed from the cluster and grown in vitro in the presence of Rp-8-pCPT-cGMPS (RpcGMPS), Rp-8-pCPT-cAMPS (RpcAMPS), or ODQ (all 10 μM). Other SNs removed at the same time were not exposed to any inhibitors as controls (C). A, B, On the third day in vitro, 12 SNs exposed to Rp-cGMPS, Rp-cAMPS, or ODQ, and 12 control SNs were impaled with a microelectrode to assess repetitive firing in response to stimulation at three test currents (A) and to determine spike threshold (B). We examined the cells on the third day, and not later, to avoid more prolonged exposure to the drugs. […] Error bars indicate SEM, and the asterisks indicate significance (p<0.0001 in each case). […] C, Detection of nNOS mRNA in single SNs by RT-PCR. Fragments of appropriate lengths were amplified with primer sets for apnNOS, sensorin A, and the neuron-specific isoform of actin from five separate sets of samples from SNs in vivo (0) or after 16 hr in vitro. The size of the synthesized fragments detected by ethidium bromide staining on 2% agarose gels were identical with those predicted from the known sequences in the database. In addition, the PCR products were verified by DNA sequence analysis. Finally, there was no amplification in the absence of reverse transcriptase, indicating the RNA preparations were not contaminated by genomic DNA (bottom panel). Positions of molecular markers are indicated on the left. D, Effects of the NOS inhibitors on LTH. L-Thiocitrulline (50 μM) and L-NAME (1 mM) were used as described above. n, Number of SNs. The data were normalized to the average excitability of control cells in the same preparation. The asterisk indicates significance (p<0.001), comparing LTH with and without inhibitor by ANOVA and Dunnett's test. Error bars indicate SEM.
Medium was changed every 2 d. Drugs were washed out 1 hr before electrophysiological tests.
Before the start of each recording, the hemolymph was replaced with a 1:1 mixture of artificial seawater and culture medium (without hemolymph; pH 7.6). Standard techniques were used for intracellular stimulation and recording (Ambron et al., 1996). The soma spike threshold was measured with a standard series of 20 msec depolarizing pulses. Repetitive firing was quantified by counting the number of spikes evoked by a series of 2 sec depolarizing pulses at 1, 2, 3, 4, and 5 nA, or 1 sec depolarizing pulses at 2.5 times the current for the 20 msec threshold. Spike amplitude was measured from baseline to the peak of the action potential, and spike duration was the breadth of the action potential at one-half of its maximal height.
To investigate whether the appearance of the LTH requires apPKG activity, the SNs were removed from the ganglion in the presence of either the soluble guanylyl cyclase (sGC) inhibitor ODQ, the PKG inhibitor Rp-8-pCPT-cGMPS, or the PKA inhibitor Rp-cAMPS. The latter was used because PKA has properties in common with PKG (Scott, 1991; Francis and Corbin, 1994) and has been implicated in various forms of synaptic plasticity in Aplysia SNs (Ghirardi et al., 1992; Byrne and Kandel, 1996; Bedi et al., 1998; Muller and Carew, 1998; Chain et al., 1999; Liao et al., 1999; Sutton and Carew, 2000; Antonov et al., 2003). The cells were subsequently allowed to regenerate in the presence of the inhibitors in vitro, and on the third day, their electrophysiological properties were compared with those of SNs that were removed from the same ganglia at the same time, but that had not been exposed to a drug. […] Neither spike broadening nor amplitude were evaluated in these experiments.

apMAPK [4] = assay: Axotomy-induced apMAPK nuclear translocation in SNs (D8 antibody immunostaining, confocal microscopy); assay type: cell-based, Aplysia; details: 10 μM, SNs in vitro; for nuclear staining of apMAPK: fixed on the third day
Protocol: Equal amounts of Alexa Fluor 546-labeled BSA, apPKG, or ERK1 were microinjected into the cytoplasm of SNs after 2 d in vitro. The neurites were then severed with a fine needle to elicit an injury response, and 30 min later, the cells were examined by confocal microscopy. […] Scale bar, 20 μm. B, Rp-8-pCPT-cGMPs inhibits axotomy-induced apMAPK nuclear translocation. SNs untreated as controls, and those exposed to either 10 μM Rp-8-pCPT-cGMPs (Rp-cGMPs) or Rp-cAMPs for 2 d in vitro, were immunostained with D8 antibody to localize apMAPK. Top, Representative examples of 2 μm optical sections of control SNs and those exposed to Rp-8-pCPT-cGMPs or Rp-cAMPs. Scale bar, 20 μm. Bottom, Histogram of the mean value of nuclear MAPK immunoreactivity. The staining intensity was determined by a person who was blind to the treatment that the cells received. n, Number of cells for each treatment. Asterisk indicates significant difference from control (p<0.05 by ANOVA and Newman-Keuls tests).
Ganglia, nerve, or cultured cells were fixed with 4% paraformaldehyde in PBS, pH 7.4. The primary antibody was diluted in TBS supplemented with 0.1-0.5% Triton X-100 in TBS and 5% goat serum, and incubated overnight at 4° C. After several washes, an Alexa Fluor 594- or 488-conjugated secondary antibody (Molecular Probes, Eugene, Oreg.) was applied for 1 hr at room temperature. Subsequently, the cells were visualized by confocal fluorescence microscopy (LSM510 confocalmicroscope; Zeiss, Oberkochen, Germany), and images were collected.
The inability of apPKG to enter the nucleus of Aplysia SNs is consistent with the idea that it contributes to the induction of LTH by promoting the nuclear import of apMAPK. If so, then inhibiting the apPKG pathway should block the axotomy-induced entry of apMAPK into the nucleus. Therefore, SNs were exposed in vitro either to the PKG blocker, Rp-8-pCPTcGMPS, or the PKA blocker, Rp-cAMPS, under the conditions that induce LTH (FIG. 6A). On the third day, the cells were fixed, permeabilized, and exposed to antibody D8 to visualize ap-MAPK. […]

PKG [5] = assay: Blocking of PKG activity at the site of sciatic nerve injury in rat; assay type: in vivo; details: nerve injured in presence of inhibitor; four hours after injury
Protocol: FIG. 9. Relative PKG activity at various positions of the sciatic nerve relative to point of injury, shown schematically above the graph.
The experiment was carried out as follows. A rat was anesthetized using a standard protocol and the sciatic nerve was exposed and injured in either the absence or the presence of RP-G, or an inhibitor of PKA, Rp-8-pCPT-cAMPS, (“RP-A”). Four hours later, the nerve was sectioned as shown in the schematic above the graph in FIG. 9, and each segment was assayed for PKG activity. In the absence of inhibitor (black bars), active PKG had been transported toward the cell bodies and was enriched in P3.

apPKG = assay: In vitro kinase assay of recombinant apPKG (32P transfer from ATP to BPDEtide); assay type: biochemical, Aplysia; details: 100 nM 8-Br-cGMP, BPDEtide substrate
Protocol: FIG. 2A-C. apPKG is a type-1 PKG. […] Activity caused by autophosphorylation was subtracted using a peptide control reaction (see Materials and Methods). Note that the kinase activity was inhibited in the presence of 10 μM PKG inhibitor Rp-8-pCPT-cGMPS (RP-G). B, Kinase activity of active recombinant apPKG (25 ng) and bovine PKG type-Iα (bPKG Iα (50 ng) in the presence of four type-I PKG peptide substrates: peptide A, RKISASGP (SEQ ID NO:21); B, RKISASEFDRPLR (SEQ ID NO:22; BPDEtide); and D, RKRSRAE (SEQ ID NO:23) H2Btide). Peptide C, QKRPRRKDTP (SEQ ID NO:24), is a type-II PKG substrate. C, apPKG phosphorylates recombinant VASP at serine-239. Purified recombinant VASP-GST (0.5 μg) was incubated with active apPKG (100 ng) or the recombinant bovine PKG (50 ng), or in the kinase buffer alone, at room temperature for 20 min. After SDS-PAGE, a Western blot was probed with an anti-phospho-VASP (Ser 239) (p-VASP 5239) antibody.
These studies establish apPKG as a member of the soluble type-I family of PKGs.

apMAPK [6] = test system: apMAPK
Protocol: Top, Left, Twenty-five micrograms of a pleural ganglia lysate collected at the indicated times after p5-p9 nerve crush were resolved by SDS-PAGE, and a Western blot was probed with Ab pTpYmapk to detect active ERK-MAPKs. […] All of the values were normalized to levels of total apMAPK. […] Each of the following experiments (B-E) was repeated twice at least, and representative results are shown. […] Left, Pleural neurons were removed from a noninjured animal, a lysate was prepared, and 25 μg was incubated with 100 ng of active apPKG protein or with 1 μM 8-Br-cGMP in the presence or absence of 10 μM U0126. Right, Twenty-five micrograms of axoplasm was incubated with active apPKG as above. Active apMAPK was detected by immunoblotting with Ab pTpYmapk.
ERK activity was assayed as described (Sung et al., 2001). Briefly, proteins and 500 μM ATP were incubated in kinase buffer for 20 min at room temperature. The reaction mixtures were resolved on 10% SDS polyacrylamide gels and subjected to Western blotting with antibody (Ab)pTpYmapk, AbpYmapk, AbpTmapk, or AbpElk1.

rats = details: intrathecal, 10 and 60 minutes later; cited from earlier work
Aplysia SNs [7] = details: SNs exposed to drug in vitro
Protocol: SNs were isolated from the pleural ganglia of 50-80 gm animals and were plated on poly-L-lysine-coated dishes containing L15 medium and 50% hemolymph (Dagan and Levitan, 1981; Glanzman etal., 1989). Cultures were maintained at 18° C. for up to 7 d. Medium was changed every 2 d. Drugs were washed out 1 hr before electrophysiological tests.

Compound: 10″ deoxybalanol
- pIC50 (PKG [1]): 7.51

Compound: 14″ decarboxy balanol
- pIC50 (PKG [1]): 7.72

Compound: Nc1nc2c(nc(Sc3ccc(Cl)cc3)n2C2OC3COP(O)(=S)OC3C2O)c(=O)[nH]1 (single isomer, unassigned) [Rp-8-pCPT-cGMPS, guanosine 3′,5′-cyclic monophosphorothioate, 8-(4-chlorophenylthio)-, Rp isomer]
- appearance of excitability (Aplysia SNs [2]): Neither Rp-8-pCPT-cGMPS nor ODQ inhibited
- decrease in spike threshold (Aplysia SNs [3]): prevented
- increase in repetitive firing (Aplysia SNs [3]): prevented
- decrease in spike threshold (Aplysia SNs [3]; listed as Rp-cGMPS): significantly prevented
- increase in repetitive firing (Aplysia SNs [3]; listed as Rp-cGMPS): significantly reduced
- reduction in the level of apMAPK in the nucleus of the SNs (apMAPK [4]): nearly threefold reduction
- nuclear staining of apMAPK (apMAPK [4]): dramatic reduction
- PKG activity in sciatic nerve segments (PKG [5]): abolished the activity
- kinase activity of purified inactive recombinant apPKG (apPKG; 10 μM inhibitor): inhibited

Compound: Nc1ncnc2c1ncn2[C@@H]1O[C@@H]2COP(O)(=S)O[C@H]2[C@H]1O (single isomer, unassigned) [Rp-cAMPS, adenosine 3′,5′-cyclic monophosphorothioate, Rp isomer]
- decrease in spike threshold (Aplysia SNs [3]): no significant effect; also recorded: not significant
- increase in repetitive firing (Aplysia SNs [3]): no significant effect
- nuclear staining of apMAPK (apMAPK [4]): same levels

Compound: Nc1nc2c(nc(Br)n2[C@@H]2O[C@@H]3COP(=O)(O)O[C@H]3[C@H]2O)c(=O)[nH]1 [8-Br-cGMP]
- level of active apMAPK (apMAPK [6]; 1 μM 8-Br-cGMP added to 25 μg lysate): markedly enhanced
- activation of inactive apPKG (apPKG): activated

Compound: COC(=O)[C@@H](N)CCCN=C(N)N[N+](=O)[O-].Cl [L-NAME, N^G-nitro-L-arginine methyl ester hydochioride]
- LTH (maximum firing relative to untreated controls) (Aplysia SNs [3]; 1 mM, SNs in vitro): reduced LTH

Compound: NC(=S)NCCC[C@H](N)C(=O)O [L-Thiocitrulline, L-thiocitrulline]
- maximum firing relative to untreated controls (LTH) (Aplysia SNs [3]; 50 μM, SNs in vitro): markedly reduced

Compound: O=c1onc2cnc3ccccc3n12 [ODQ, 1-H[1,2,4]oxadiazolo[4,3-a]quinoxalin-1-one]
- appearance of excitability (Aplysia SNs [2]): Neither Rp-8-pCPT-cGMPS nor ODQ inhibited
- decrease in spike threshold (Aplysia SNs [3]): significantly prevented
- increase in repetitive firing (Aplysia SNs [3]): prevented; also recorded: significantly reduced

Compound: Nc1ncnc2c1nc(Sc1ccc(Cl)cc1)n2C1OC2COP(O)(=S)OC2C1O (stereo not drawn) [RP-A, Rp-8-pCPT-cAMPS]
- PKG activity in sciatic nerve segments (PKG [5]): did not change this pattern

Compound: CCN(CC)CC.Nc1nc2c(nc(Sc3ccc(Cl)cc3)n2[C@@H]2O[C@@H]3COP(O)(=S)O[C@H]3[C@H]2O)c(=O)[nH]1 (stereo partly drawn) [Rp-8-[4-chlorophenyl)thio-cGMPS triethylamine]
- antinociception (rats): significant antinociception

Compound: N#CC(=C(/N)Sc1ccccc1N)/C(C#N)=C(\N)Sc1ccccc1N [U0126]
- extent or pattern of neurite growth (Aplysia SNs [7]): severe growth defects
- block of apMAPK activation by active apPKG or 8-Br-cGMP (apMAPK [6]; 10 μM U0126): not blocked

Compound: O=C(NC1CNCCCC1OC(=O)c1cc(O)c(C(=O)c2c(O)cccc2C(=O)O)c(O)c1)c1ccc(O)cc1 (stereo not drawn) [balanol]
- pIC50 (PKG [1]): 8.80

Compound: balanol-7R
- pIC50 (PKG [1]): 6.54
